Assay results taken from publication PMC7068811 (Frontiers in Immunology, 2020).
Where no end group is shown, it is not given here.

What was measured:
P. yoelii sporozoites = test: Sporozoite challenge and protection against malaria; type: in vivo, Plasmodium yoelii (17XNL) in BALB/c mice; conditions: AdPyCS 10^9 virus particles IM; 200 μg IP days 1, 3, 5, 7 where treated; challenge day 12; n = 20/group
Source text: Six- to eight-week-old female BALB/c mice were purchased from Taconic (Germantown, NY, USA). All mice were maintained under standard conditions in the Laboratory Animal Research Center of the Rockefeller University, and the protocol was approved by the Institutional Animal Care and Use Committee at the Rockefeller University (Assurance no. A3081-01). A recombinant serotype 5 adenovirus, AdPyCS that expressed Plasmodium yoelii circumsporozoite protein (PyCS) was constructed as previously described ([32]). Wild-type P. yoelii parasites of the 17 XNL strain were maintained in the insect facility of the Division of Parasitology, Department of Microbiology at New York University School of Medicine. […]
Sporozoite challenge experiments were performed as described previously ([32]–[35]). […] Parasitemia was monitored from days 3 to 8 after the sporozoite challenge, by detecting the presence of parasitized red blood cells in thin blood smears to assess for a complete protection against malaria. […]
To evaluate efficacy of the PD1 peptide antagonists as a prophylactic vaccine adjuvant, a rodent malaria model dependent on the generation of protective CD8 T cells was employed. […] On day 12, spleens were harvested and the number of splenic circumsporozoite protein (CS)-specific, IFN-γ-secreting CD8^+ T cells were assessed using an ELISpot assay. […]

human PD1 = human PD1 (Homo sapiens, UniProt Q15116); test: Biacore surface plasmon resonance, binding to human PD1; conditions: for KA: 25°C, HEPES pH 7.4; for Rmax: maximum binding capacity
Description: (§1) Binding experiments were performed on a Biacore T-200 (GE Healthcare Life Sciences, Buckinghamshire, UK) at 25°C. The assay buffer was 10 mM HEPES buffer (pH 7.4), 150 mM NaCl, 3 mM EDTA, and 0.05% P20. The regeneration buffer was 10 mM HEPES buffer (pH 7.4), 150 mM NaCl, 3 mM EDTA, and 0.05% P20. The immobilization buffer was 10 mM sodium acetate at pH 5.0. The flow rate used for immobilizing the ligand was 5 μL/min. The flow rate for kinetics analysis was 30 μL/min. In initial scouting experiments, 12,000 RU of human and 6000 RU of mouse PD1 receptors were directly immobilized on flow cell 2 and flow cell 4 of the CM5 chip using an amine coupling method (EDC/NHS). The unoccupied sites were blocked with 1M ethanol amine. […] Flow cell 1 was kept blank and used for reference subtraction. Binding of an analyte to the ligand was monitored in real-time. Based on the scouting results, full kinetics were performed by immobilizing 10,000 RU of the ligand to a new chip using an analyte concentration of 25 μM, followed by serial dilution to 12.5, 6.25, 3.125, 1.562, 0.78, and 0 μM concentration, or as indicated. Data analysis was performed using software for Biacore 3000, because it has more flexibility in terms of obtaining the binding characteristics with a limited analyte concentration range. […] Chi-square (χ^2) analysis was performed between the actual sensorgram and the sensorgram generated from the BIAnalysis software to determine the accuracy of the analysis. A χ^2 value within 1–2 was considered to be significant (accurate) and below 1 was considered to be highly significant (highly accurate).
(§2) The four peptides identified by phage display were then tested for binding to human and mouse PD1 using the surface plasmon resonance technique.

mouse PD1 = molecular target: T1, mouse PD1 (Mus musculus, UniProt Q02242); test: Biacore surface plasmon resonance, binding to mouse PD1; conditions: for relative affinity for mouse PD1: compared to WQ20 and HD20 (Table 2); for KA: 25°C, HEPES pH 7.4
T1 sequence (Q02242 25-288): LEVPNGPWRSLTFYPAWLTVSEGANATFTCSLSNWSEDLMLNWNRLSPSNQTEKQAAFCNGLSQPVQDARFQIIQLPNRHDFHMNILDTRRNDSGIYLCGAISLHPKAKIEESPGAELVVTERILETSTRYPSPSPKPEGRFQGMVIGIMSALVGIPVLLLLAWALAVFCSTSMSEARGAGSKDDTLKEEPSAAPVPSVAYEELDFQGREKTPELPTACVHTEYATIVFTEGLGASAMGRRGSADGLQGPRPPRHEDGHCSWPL
Description: as §1, §2

[1] = tested on: human PD1 on Jurkat T cells; test: Competitive inhibition of PD-L1-Fc binding to Jurkat cells overexpressing human PD1; type: cell-based; conditions: 10 μM peptide, 30 min on ice, PD-L1-Fc 4 μg/mL; flow cytometry MFI normalized to no peptide; duplicates
human PBMC = type: cell-based
[2] = human PD1, peptide analyte 0–25 μM
[3] = mouse PD1, peptide analyte 0–25 μM
[4] = mouse PD1, peptide analyte 0–25 μM, maximum binding capacity

Chain of human PD1 (Q15116 25-288): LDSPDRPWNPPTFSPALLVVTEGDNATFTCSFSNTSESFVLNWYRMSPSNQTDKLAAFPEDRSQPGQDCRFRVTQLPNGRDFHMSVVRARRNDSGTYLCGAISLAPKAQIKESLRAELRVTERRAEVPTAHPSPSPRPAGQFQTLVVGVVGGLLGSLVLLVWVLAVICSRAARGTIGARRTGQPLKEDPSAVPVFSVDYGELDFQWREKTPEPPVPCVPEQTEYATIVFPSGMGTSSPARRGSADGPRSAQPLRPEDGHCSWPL

Substance | protection against malaria (P. yoelii sporozoites) | KA (human PD1; [2]) | Rmax (human PD1; [2]) | relative affinity for mouse PD1 (mouse PD1) | KA (mouse PD1; [3]) | Rmax (mouse PD1; [4]) | reduction in PD-L1-Fc binding [1] | cytokine secretion (IFN-γ, IL-17, IL-6) (human PBMC) | Rmax (human PD1; human PD1, peptide analyte 0–12.5 μM) | Rmax (mouse PD1; mouse PD1, mouse PD-L1 analyte 0–50 (head μM)) | Rmax (mouse PD1; mouse PD1, mouse PD-L1 analyte 0–1000 (head μM))
negative control peptide: control peptide is the OVA323−339 peptide (malaria model) (KISQAVHAAHAEINEAG; UniProt P01012 323-339, looked up, fragment) | no protection |  |  |  |  |  |  |  |  |  | 
QTRTVPMPKIHHPPWQNVVP [QP20] |  | 93600 M⁻¹ | 3.83 RU | bound to mouse PD1 with a higher affinity compared to WQ20 and HD20 | 18000 M⁻¹ | 13.4 RU | < 30% | With the exception of QP20, the other PD1-binding peptides significantly increased cytokine secretion at 200 μM relative to tetanus alone |  |  | 
HHHQVYQVRSHWTGMHSGHD [HD20] |  |  |  |  | 4250 M⁻¹ | 76 RU | < 30% |  | 3.35 RU |  | 
Mouse PD-L1: mouse PD-L1 analyte [reference compound] |  |  |  |  |  |  |  |  |  | 259 RU | 1.07 × 10^3 RU
SSYHHFKMPELHFGKNTFHQ [SQ20] |  | 194000 M⁻¹ | 4.05 RU | bound to mouse PD1 with a higher affinity compared to WQ20 and HD20 | 21400 M⁻¹ | 12.8 RU | > 30% |  |  |  | 
